US8455497B2, “Inhibitors of aspartyl protease” (Vertex Pharmaceuticals Incorporated, priority 1999, dated 2013)
Where two headings read alike, the source gives them in different places.

Tests used:
[1] = tested on: EP13 multi protease inhibitor resistant virus; assay: Anti-viral activity against resistant virus EP13 in MT4 cells; type: cell-based, HIV-1; conditions: Human immunodeficiency virus 1, MT4, read-out: EP13 mutant IC50, EP13 multi protease inhibitor resistant virus, MT4 cells
Outline: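 MT4 cells infected for 1 h at 37 °C, MOI 100×TCID50, then diluted 6-fold onto pre-diluted compound and cultured 5 days (5% CO2). Viable-cell DNA content estimated by propidium iodide. EP13 carries protease mutations M46I, L63P, A71V, V82F/L, I84V, no RT mutations.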

HIV-1 (strain IIIB) = assay: Antiviral activity assay in MT4 cells (propidium iodide based); type: cell-based
Outline: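 MT4 cells infected with HIV-1 IIIB (MOI 100×TCID50, 1 hr, 37°C), diluted 6-fold into wells with serially diluted compound, incubated 5 days. Cells lysed with Nonidet-40; DNA content per well estimated by propidium iodide staining as the viability read-out, with mock-infected controls.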

[2] = tested on: D545701-14 multi protease inhibitor resistant virus; assay: Anti-viral activity against resistant virus D545701-14 in MT4 cells; type: cell-based, HIV-1; conditions: Human immunodeficiency virus 1, MT4, read-out: D545701-14 mutant - IC50, D545701-14 multi protease inhibitor resistant virus, MT4 cells
[3] = Human immunodeficiency virus 1, IIIB, wild type HIV-1 virus, MT4 cells, read-out: Wildtype virus - IC50
[4] = Human immunodeficiency virus 1, MT4, 120 h, MT-4 cells, HIV-1 strain IIIB, 5 days, read-out: IC50 (Antiviral Activity of Compounds of the Invention)

| Structure (SMILES) | IC50 [1] | IC50 (HIV-1 (strain IIIB); [3]) | IC50 [2] | IC50 (HIV-1 (strain IIIB); [4]) |
| --- | --- | --- | --- | --- |
| CC(C)CN(C[C@@H](O)[C@H](Cc1ccc(OCc2ccccc2C#N)cc1)NC(=O)O[C@H]1CO[C@H]2OCC[C@H]21)S(=O)(=O)c1ccc2c(c1)OCO2 [Compound 382, (3R,3aS,6aR)-hexahydrofuro[2,3-b]furan-3-yl (1S,2R)-3-[(1,3-benzodioxol-5-ylsulfonyl)(isobutyl)amino]-1-{4-[(2-cyanobenzyl)oxy]benzyl}-2-hydroxypropylcarbamate] | 1 to 10 nM | 1 to 10 nM | 1 to 10 nM | – |
| CC(C)CN(C[C@@H](O)[C@H](Cc1ccc(OCCCOC(N)=O)cc1)NC(=O)O[C@H]1CO[C@H]2OCC[C@H]21)S(=O)(=O)c1ccc2c(c1)OCO2 [Compound 321, (3R,3aS,6aR)-Hexahydrofuro[2,3-b]furan-3-yl (1S,2R)-1-(4-{3-[(aminocarbonyl)oxy]propoxy}benzyl)-3-[(1,3-benzodioxol-5-ylsulfonyl)(isobutyl)amino]-2-hydroxypropylcarbamate] | 1 to 10 nM | 1 to 10 nM | 1 to 10 nM | – |
| CC(C)CN(C[C@@H](O)[C@H](Cc1ccc(OCc2ccccc2CS(=O)(=O)c2ccccc2)cc1)NC(=O)O[C@H]1CO[C@H]2OCC[C@H]21)S(=O)(=O)c1ccc2c(c1)OCO2 [Compound 388, (3R,3aS,6aR)-hexahydrofuro[2,3-b]furan-3-yl (1S,2R)-3-[(1,3-benzodioxol-5-ylsulfonyl)(isobutyl)amino]-2-hydroxy-1-[4-{(2-[(phenylsulfonyl)methyl]benzyl}oxy)benzyl]propylcarbamate] | 1 to 10 nM | 1 to 10 nM | 1 to 10 nM | – |
| CC(C)CN(C[C@@H](O)[C@H](Cc1ccc(OCC#N)cc1)NC(=O)O[C@H]1CO[C@H]2OCC[C@H]21)S(=O)(=O)c1ccc2c(c1)OCO2 [Compound 393, (3R,3aS,6aR)-hexahydrofuro[2,3-b]furan-3-yl (1S,2R)-3-[(1,3-benzodioxol-5-ylsulfonyl)(isobutyl)amino]-1-[4-(cyanomethoxy)benzyl]-2-hydroxypropylcarbamate] | 10 to 100 nM | 10 to 100 nM | 10 to 100 nM | – |
| CC(C)CN(C[C@@H](O)[C@H](Cc1ccc(OCCCN2CCN(C)CC2)cc1)NC(=O)O[C@H]1CO[C@H]2OCC[C@H]21)S(=O)(=O)c1ccc2c(c1)OCO2 [Compound 282, (3R,3aS,6aR)-hexahydrofuro[2,3-b]furan-3-yl (1S,2R)-3-[(1,3-benzodioxol-5-ylsulfonyl)(isobutyl)amino]-2-hydroxy-1-{4-[3-(4-methyl-1-piperazinyl)propoxy]benzyl}propylcarbamate] | 1 to 10 nM | 10 to 100 nM | 10 to 100 nM | – |
| Cc1cc(COc2ccc(C[C@H](NC(=O)O[C@H]3CO[C@H]4OCC[C@H]43)[C@H](O)CN(CC(C)C)S(=O)(=O)c3ccc4c(c3)OCO4)cc2)no1 [Compound 55, Bis-THF Methylenedioxybenzenesulfonamide 3-methyl-5-methylisoxazole Tethered Product] | 1 to 10 nM | – | 1 to 10 nM | < 1 nM |
| CC(C)CN(C[C@@H](O)[C@H](Cc1ccc(OCc2ccncc2)cc1)NC(=O)O[C@H]1CO[C@H]2OCC[C@H]21)S(=O)(=O)c1ccc2c(c1)OCO2 [Compound 54, Bis-THF Methylenedioxybenzenesulfonamide 4-picolyl Tethered Product] | 1 to 10 nM | 10 to 100 nM | 1 to 10 nM | 1 to 10 nM |
